Key:
L929 (Mouse Fibroblast) = experiment: In vitro wound healing scratch assay, L929 cells; assay type: cell-based
Experimental: (§1) In order to determine the effect of the gel on wound healing, its capacity for cell migration and wound closure was analyzed by using the scratch assay described in the literature (Walter et al. 2010). […] The cells were seeded onto 12 well culture plates at a concentration of 100,000 cells/well, and by storing them in a carbon dioxide incubator so that they were enabled to attach and reach the sufficient density. Scratches were formed by using 200 μl pipette tip such that they will be perpendicular to the horizontal lines drawn by an acetate pen from the center of the wells to the outside of the wells. Gel combination was applied on the cells and scratch closure was observed. Setrach closure (FIG. 6-7) was analyzed by using NIH Image program upon photographing the regions of the straches which correspond to the lines drawn by an acetate pen and which are in the field of view of the microscope at 0, 12 and 24 hours.

HF (Human Fibroblast) = experiment: In vitro wound healing scratch assay, human fibroblast cells; assay type: cell-based
Experimental: as §1

L929-HUVEC co-culture = experiment: In vitro wound healing scratch assay, L929-HUVEC co-culture; assay type: cell-based
Experimental: as §1

Akt gene = experiment: Real time PCR, Akt gene level; assay type: cell-based
Experimental: (§2) Real time PCR (Polymerase Chain Reaction) analyses were performed according to the literature by using SYBR Green method (Yalvac et al, 2010). The primers belonging to the collagen, fibronectin, laminin, Akt, Bax and P53 genes were designed using Primer BLAST software (The National Center for Biotechnology=NCBI). Total RNAs were isolated from the cells on which gel combination was applied and cDNA was synthesized. The synthesized cDNAs were mixed with primers in SYBR Green mix solution such that the final volume will be 20 μl and the expression levels of the genes (FIG. 8) were analyzed by using BIO-RAD device.

Bax and p53 genes = experiment: Real time PCR, apoptotic gene levels; assay type: cell-based
Experimental: as §2

glutathione peroxidase = experiment: Glutathione peroxidase enzyme activity assay in treated cells; assay type: cell-based; settings: in comparison to the control group
Experimental: (§3) Antioxidant parameters were determined by glutathione peroxidase and superoxide dismutase enzyme activity assay and analysis of the MDA (malondialdehyde) levels. The cells which were subjected to the gel combination, to the active agent and only to the medium for control purposes in 6-well culture plates were collected and protein isolation was performed from the cell pellet by determined by measuring absorbance and drawing a standard curve at 595 nm wavelength with Bradford solution in 96-well ELISA plates by using bovine albumin protein standards (0.125, 0.25, 0.5, 0.75, 1.0, 1.5, 2.0 mg/ml). The enzyme activity assays and MDA levels were determined such that they wilt comply with the protocols given in commercials kits (FIG. 9).

superoxide dismutase = experiment: Superoxide dismutase enzyme activity assay in treated cells; assay type: cell-based; settings: determined indirectly
Experimental: as §3

malondialdehyde = experiment: Malondialdehyde (MDA) level in treated cells; assay type: cell-based; settings: in comparison to the control group
Experimental: as §3

Question: sodium pentaborate pentahydrate was tested. Which wound closure (L929 (Mouse Fibroblast); 12 hours) did it give?
Answer: 71%

Question: And the wound closure rate (L929 (Mouse Fibroblast); 24 hours)?
Answer: 84%

Question: And the wound closure rate (HF (Human Fibroblast); 12 hours)?
Answer: 58%

Question: And the wound closure rate (HF (Human Fibroblast); 24 hours)?
Answer: 91%

Question: And the wound closure rate (L929-HUVEC co-culture; 12 hours)?
Answer: 59%

Question: And the wound closure rate (L929-HUVEC co-culture; 24 hours)?
Answer: 100%

Question: What about the akt gene levels (Akt gene) of the same substance?
Answer: decreased

Question: What about the “apoptotic gene levels (Bax, p53)” value (Bax and p53 genes) of the same substance?
Answer: decreased

Question: And the “glutathione peroxidase enzyme activity” value (glutathione peroxidase)?
Answer: substantial amount of enzyme activity

Question: What about the “superoxide dismutase enzyme activity” value (superoxide dismutase) of the same substance?
Answer: high level of enzyme activity

Question: What about the malondialdehyde levels (malondialdehyde) of the same substance?
Answer: low MDA levels

Question: And the karyotype (human fibroblast cells)?
Answer: maintained their normal karyotypes

— patent US9655990B2, “Polymer based hydrogel” (YEDITEPE UNIVERSITESI, priority 2013, dated 2017)
